Reference: ChEMBL document CHEMBL1201862, “PubChem BioAssay data set” (2004)
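Cultured in 96-well plates, cells were exposed to test compound for 48 hours across five concentrations. GI50 is the concentration that inhibits growth by half.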 Activity calls are given as the source filed them. No stated cut-off is given here; in the data, active = GI50 up to about 1.1 µM and inactive = higher.

Key:
Assay in all cases: NCI tumour cell line growth inhibition, 48 h
[1] = system: 786-0
[2] = system: A549
[3] = system: ACHN
[4] = system: CCRF-CEM
[5] = system: EKVX
[6] = system: HL-60
[7] = system: HOP-62
[8] = system: HT-29
[9] = system: MOLT-4
[10] = system: NCI-H23
[11] = system: NCI-H522
[12] = system: SF-268
[13] = system: SNB-19
[14] = system: HCT-116
[15] = system: RPMI-8226
[16] = system: SNB-75

Measured: GI50

O=c1cc2n(c(=O)[nH]1)C1OC(C(O)C1O)[C@H]2CCO (stereo not given in full)
inactive: [1] > 100 µM | [2] > 100 µM | [3] > 100 µM | [4] > 100 µM | [5] > 100 µM | [6] > 100 µM | [7] > 100 µM | [8] > 100 µM | [9] > 100 µM | [10] > 100 µM | [11] > 100 µM | [12] > 100 µM | [13] > 100 µM

O=C(CC1(O)C(=O)Nc2c(Cl)ccc(Cl)c21)c1ccc(Cl)cc1Cl (stereo not given)
inactive: [1] 14.2 µM | [2] 23.5 µM | [3] 16.6 µM | [5] 21.6 µM | [14] 19.1 µM | [7] 24 µM | [8] 15.3 µM | [10] 19.9 µM | [15] 19.5 µM | [12] 27.6 µM | [13] 32.2 µM | [16] 16.7 µM

O=C(/N=C(/Nc1ccccc1)SCCS/C(=N\C(=O)c1ccccc1)Nc1ccccc1)c1ccccc1
inactive: [1] 61.4 µM | [2] 65.2 µM | [3] 55.7 µM | [4] 64.6 µM | [5] > 100 µM | [14] 46.8 µM | [7] 86.5 µM | [8] 35.6 µM | [9] 38.7 µM | [10] 59.8 µM | [11] 22.2 µM | [15] 48.2 µM | [12] 41.5 µM | [13] 56.4 µM | [16] 29.5 µM

O=C(c1ccccc1)[C@H]1Nc2ccc(Cl)cc2[C@H]2c3ccccc3O[C@H]21
inactive: [1] 16.6 µM | [2] 14.6 µM | [3] 15.2 µM | [5] 15.2 µM | [14] 17.2 µM | [7] 18.1 µM | [8] 12.7 µM | [9] 4.82 µM | [10] 14.2 µM | [11] 17.8 µM | [15] 27 µM | [12] 18.1 µM | [13] 15.7 µM | [16] 12.4 µM

CC(=O)O[C@H]1CC2C=CC3C(CCC31)O2 (stereo not given in full)
inactive: [1] > 100 µM | [2] > 100 µM | [3] > 100 µM | [4] > 100 µM | [5] > 100 µM | [6] 80 µM | [7] > 100 µM | [8] > 100 µM | [9] > 100 µM | [10] > 100 µM | [12] > 100 µM | [13] > 100 µM | [16] > 100 µM

CCCCCCCCc1cc2c(O)c(c1)Cc1cc(CCCCCCCC)cc(c1O)Cc1cc(CCCCCCCC)cc(c1O)Cc1cc(CCCCCCCC)cc(c1O)Cc1cc(CCCCCCCC)cc(c1O)Cc1cc(CCCCCCCC)cc(c1O)C2
inactive: [1] > 100 µM | [2] > 100 µM | [3] > 100 µM | [4] > 100 µM | [14] > 100 µM | [6] > 100 µM | [7] > 10 µM | [8] > 100 µM | [9] > 100 µM | [10] > 100 µM | [12] > 100 µM | [13] > 100 µM | [16] > 100 µM

O=C1CC[C@@H](NC(=O)Cc2ccccc2)C(=O)N1
inactive: [1] > 100 µM | [2] > 100 µM | [3] > 100 µM | [4] > 100 µM | [5] > 100 µM | [14] > 100 µM | [7] > 100 µM | [8] > 100 µM | [9] > 100 µM | [10] > 100 µM | [11] > 100 µM | [15] > 100 µM | [12] > 100 µM | [13] > 100 µM | [16] > 100 µM
